Assay results reported in patent US9006451B1, “2-anilinonicotinyl based chalcones useful as potential anticancer agents and process for preparation thereof” (Council of Scientific and Industrial Research, priority 2013, dated 2015).
Like-named read-outs stand apart in the source and are kept apart here.

Columns and labels:
Format in all cases: cell-based
[1] = tested on: CCRF-CEM; assay: NCI 60 human tumor cell line screen (SRB): CCRF-CEM; conditions: Leukemia, 48 hours, read-out: GI50 values (μM conc.)
Description: (§1) The in vitro anticancer activity studies for these chalcone analogues were carried out at the National Cancer Institute, USA.
(§2) The chalcone compounds have been tested at NCI, USA, against sixty human tumor cell lines derived from nine cancer types (leukemia, non-small cell lung cancer, colon cancer, CNS cancer, melanoma cancer, ovarian cancer, renal cancer, prostate cancer and breast cancer). For these compounds results are expressed as growth inhibition (GI50) values as per NCI protocol.
(§3) We describe here the development and implementation of a pilot-scale, in vitro, anticancer drug screen utilizing a panel of 60 human tumor cell lines organized into subpanels representing leukemia, melanoma, and cancers of the lung, colon, kidney, ovary, and central nervous system. The ultimate goal of this disease-oriented screen is to facilitate the discovery of new compounds with potential cell line-specific and/or subpanel-specific antitumor activity. In the current screening protocol, each cell line is inoculated onto microtiter plates, then preincubated for 28 hours. Subsequently, test agents are added in five 10-fold dilutions and the culture is incubated for an additional 48 hours. For each test agent, a dose-response profile is generated. End-point determinations of the cell viability or cell growth are performed by in situ fixation of cells, followed by staining with a protein-binding dye, sulforhodamine B (SRB). The SRB binds to the basic amino acids of cellular macromolecules; the solubilized stain is measured spectrophotometrically to determine relative cell growth or viability in treated and untreated cells.

[2] = tested on: MALME-3M; assay: NCI 60 human tumor cell line screen (SRB): MALME-3M; conditions: Melanoma, 48 hours, read-out: GI50 values (μM conc.)
Description: as §1, §2, §3

[3] = tested on: ACHN; assay: NCI 60 human tumor cell line screen (SRB): ACHN; conditions: Renal, 48 hours, read-out: GI50 values (μM conc.)
Description: as §1, §2, §3

[4] = tested on: SF-295; assay: NCI 60 human tumor cell line screen (SRB): SF-295; conditions: SF-295, CNS, 48 hours, read-out: GI50 values (μM conc.)
Description: as §1, §2, §3

[5] = tested on: OVCAR-4; assay: NCI 60 human tumor cell line screen (SRB): OVCAR-4; conditions: OVCAR-4, Ovarian, 48 hours, read-out: GI50 values (μM conc.)
Description: as §1, §2, §3

[6] = tested on: SW-620; assay: NCI 60 human tumor cell line screen (SRB): SW-620; conditions: SW-620, Colon, 48 hours, read-out: GI50 values (μM conc.)
Description: as §1, §2, §3

[7] = tested on: SNB-19; assay: NCI 60 human tumor cell line screen (SRB): SNB-19; conditions: SNB-19, CNS, 48 hours, read-out: GI50 values (μM conc.)
Description: as §1, §2, §3

[8] = tested on: MOLT-4; assay: NCI 60 human tumor cell line screen (SRB): MOLT-4; conditions: MOLT-4, Leukemia, 48 hours, read-out: GI50 values (μM conc.)
Description: as §1, §2, §3

[9] = tested on: T-47D; assay: NCI 60 human tumor cell line screen (SRB): T-47D; conditions: T47D, Breast, 48 hours, read-out: GI50 values (μM conc.)
Description: as §1, §2, §3

[10] = tested on: NCI-H522; assay: NCI 60 human tumor cell line screen (SRB): NCI-H522; conditions: NCI-H522, Non-small cell lung, 48 hours, read-out: GI50 values (μM conc.)
Description: as §1, §2, §3

[11] = tested on: PC-3; assay: NCI 60 human tumor cell line screen (SRB): PC-3; conditions: PC-3, Prostate, 48 hours, read-out: GI50 values (μM conc.)
Description: as §1, §2, §3

[12] = tested on: SR; assay: NCI 60 human tumor cell line screen (SRB): SR; conditions: Leukemia, 48 hours, read-out: GI50 values (μM conc.)
Description: as §1, §2, §3

[13] = tested on: NCI-H23; assay: NCI 60 human tumor cell line screen (SRB): NCI-H23; conditions: NCI-H23, Non-small cell lung, 48 hours, read-out: GI50 values (μM conc.)
Description: as §1, §2, §3

[14] = tested on: UACC-62; assay: NCI 60 human tumor cell line screen (SRB): UACC-62; conditions: UACC-62, Melanoma, 48 hours, read-out: GI50 values (μM conc.)
Description: as §1, §2, §3

[15] = tested on: OVCAR-3; assay: NCI 60 human tumor cell line screen (SRB): OVCAR-3; conditions: OVCAR-3, Ovarian, 48 hours, read-out: GI50 values (μM conc.)
Description: as §1, §2, §3

[16] = tested on: MDA-MB-468; assay: NCI 60 human tumor cell line screen (SRB): MDA-MB-468; conditions: MDA-MB-468, Breast, 48 hours, read-out: GI50 values (μM conc.)
Description: as §1, §2, §3

[17] = tested on: HT29; assay: NCI 60 human tumor cell line screen (SRB): HT29; conditions: HT-29, HT29, Colon, 48 hours, read-out: GI50 values (μM conc.)
Description: as §1, §2, §3

[18] = tested on: SK-OV-3; assay: NCI 60 human tumor cell line screen (SRB): SK-OV-3; conditions: SK-OV-3, Ovarian, 48 hours, read-out: GI50 values (μM conc.)
Description: as §1, §2, §3

[19] = tested on: SF-268; assay: NCI 60 human tumor cell line screen (SRB): SF-268; conditions: SF-268, CNS, 48 hours, read-out: GI50 values (μM conc.)
Description: as §1, §2, §3

[20] = tested on: HCT-116; assay: NCI 60 human tumor cell line screen (SRB): HCT-116; conditions: HCT-116, Colon, 48 hours, read-out: GI50 values (μM conc.)
Description: as §1, §2, §3

[21] = tested on: KM12; assay: NCI 60 human tumor cell line screen (SRB): KM12; conditions: KM12, Colon, 48 hours, read-out: GI50 values (μM conc.)
Description: as §1, §2, §3

[22] = tested on: IGROV1; assay: NCI 60 human tumor cell line screen (SRB): IGROV1; conditions: IGROV-1, IGROV1, Ovarian, 48 hours, read-out: GI50 values (μM conc.)
Description: as §1, §2, §3

[23] = tested on: UACC-257; assay: NCI 60 human tumor cell line screen (SRB): UACC-257; conditions: UACC-257, Melanoma, 48 hours, read-out: GI50 values (μM conc.)
Description: as §1, §2, §3

[24] = tested on: MCF7; assay: NCI 60 human tumor cell line screen (SRB): MCF7
Description: as §1, §2, §3

[25] = tested on: NCI-H460; assay: NCI 60 human tumor cell line screen (SRB): NCI-H460; conditions: NCI-H460, Non-small cell lung, 48 hours, read-out: GI50 values (μM conc.)
Description: as §1, §2, §3

[26] = tested on: RPMI-8226; assay: NCI 60 human tumor cell line screen (SRB): RPMI-8226; conditions: RPMI-8226, Leukemia, 48 hours, read-out: GI50 values (μM conc.)
Description: as §1, §2, §3

[27] = tested on: MDA-MB-231/ATCC; assay: NCI 60 human tumor cell line screen (SRB): MDA-MB-231/ATCC; conditions: Breast, 48 hours, read-out: GI50 values (μM conc.)
Description: as §1, §2, §3

[28] = tested on: NCI-H322M; assay: NCI 60 human tumor cell line screen (SRB): NCI-H322M; conditions: Non-small cell lung, 48 hours, read-out: GI50 values (μM conc.)
Description: as §1, §2, §3

[29] = tested on: RXF 393; assay: NCI 60 human tumor cell line screen (SRB): RXF 393; conditions: RXF 393, Renal, 48 hours, read-out: GI50 values (μM conc.)
Description: as §1, §2, §3

[30] = MCF7, Breast, 48 hours, SRB, read-out: GI50 values (μM conc.)
[31] = MCF7, comparison table, read-out: GI50 μM in MCF7

Structure (SMILES) | GI50 [1] [µM] | GI50 [2] [µM] | GI50 [3] [µM] | GI50 [4] [µM] | GI50 [5] [µM] | GI50 [6] [µM] | GI50 [7] [µM] | GI50 [8] [µM] | GI50 [9] [µM] | GI50 [10] [µM] | GI50 [11] [µM] | GI50 [12] [µM] | GI50 [13] [µM] | GI50 [14] [µM] | GI50 [15] [µM] | GI50 [16] [µM] | GI50 [17] [µM] | GI50 [18] [µM] | GI50 [19] [µM] | GI50 [20] [µM] | further results
COc1cc(C(=O)/C=C/c2cccnc2Nc2ccccc2)cc(OC)c1OC [6a, (E)-3-(2-(Phenylamino)pyridin-3-yl)-1-(3,4,5-trimethoxyphenyl)prop-2-en-1-one] | 0.32 | 1.92 | 1.28 | 1.87 | 1.45 | 0.42 | 1.48 | 2.68 | 1.43 | 0.49 | 1.1 | 0.34 | 1.43 | 1.29 | 0.42 | 0.66 | 0.51 | 1.6 | 1.55 | 0.33 | GI50 [21]: 0.92 µM; GI50 [22]: 2.37 µM; GI50 [23]: 1.51 µM; GI50 [24, 30]: 0.35 µM; GI50 [24, 31]: 0.35 µM; GI50 [25]: 1.8 µM; GI50 [26]: 0.35 µM; GI50 [27]: 1.4 µM; GI50 [28]: 1.9 µM; GI50 [29]: 1.12 µM
COc1cc(Nc2ncccc2/C=C/C(=O)c2cc(OC)c(OC)c(OC)c2)cc(OC)c1OC [6v, (E)-1-(3,4,5-Trimethoxyphenyl)-3-(2-(3,4,5-trimethoxyphenylamino)pyridin-3-yl)prop-2-en-1-one] | 7.08 | 15.3 | 5.34 | 4.92 | 9.78 | 4.81 | 6.8 | 6.72 | 5.3 | 7.44 | 7.81 | 3.6 | 10.2 | 4.96 | 7.45 | 6.78 | 5.51 | 11.1 | 8.19 | 3.77 | GI50 [21]: 6.5 µM; GI50 [22]: 12.6 µM; GI50 [23]: 8.52 µM; GI50 [24, 30]: 3.97 µM; GI50 [24, 31]: 3.97 µM; GI50 [25]: 3.61 µM; GI50 [26]: 6.83 µM; GI50 [27]: 12.6 µM; GI50 [28]: 21.1 µM; GI50 [29]: 5.22 µM
COc1ccc(Nc2ncccc2/C=C/C(=O)c2cc(OC)c(OC)c(OC)c2)cc1 [6h, (E)-3-(2-(4-Methoxyphenylamino)pyridin-3-yl)-1-(3,4,5-trimethoxyphenyl)prop-2-en-1-one] | 0.5 | 1.4 | 1.55 | 1.85 | 1.62 | 1.2 | 2.14 | 2.09 | 1.67 | 0.36 | 2.82 | 0.46 | 1.72 | 1.56 | 1.64 | 1.15 | 1.6 | 2.72 | 1.77 | 1.02 | GI50 [21]: 1.69 µM; GI50 [22]: 2 µM; GI50 [23]: 1.53 µM; GI50 [24, 30]: 0.69 µM; GI50 [24, 31]: 0.69 µM; GI50 [25]: 2.01 µM; GI50 [26]: 1.08 µM; GI50 [27]: 1.94 µM; GI50 [28]: 2.13 µM; GI50 [29]: 1.49 µM
COc1ccc(C(=O)/C=C/c2cccnc2Nc2cc(OC)c(OC)c(OC)c2)cc1 [6z, (E)-1-(4-Methoxyphenyl)-3-(2-(3,4,5-trimethoxyphenylamino)pyridin-3-yl)prop-2-en-1-one] | 0.71 | 3.24 | 1.7 | 2.91 | 1.78 | 0.39 | 2.87 | 2.26 | 2.04 | 1.33 | 1.13 | 0.09 | 4.02 | 1.9 | 0.48 | 0.77 | 0.37 | 3.15 | 3.13 | 0.53 | GI50 [21]: 0.46 µM; GI50 [22]: 4.64 µM; GI50 [23]: 3.63 µM; GI50 [24, 30]: 0.18 µM; GI50 [24, 31]: 0.18 µM; GI50 [25]: 2.16 µM; GI50 [26]: 0.85 µM; GI50 [27]: 2.15 µM; GI50 [28]: 7.38 µM; GI50 [29]: 1.68 µM
